Test results taken from US11938136B2, “Compositions for treating spinal muscular atrophy” (Hoffmann-La Roche Inc., priority 2015, dated 2024).
Where two headings read alike, the source gives them in different places.

Assays:
human SMN2 pre-mRNA = experiment: SMN2 splicing in SMA Type 1 fibroblasts (RT-PCR); type: cell-based; conditions: Fibroblast, 24 hours
Experimental: (§1) (A) SMN2 splicing in SMA Type 1 fibroblasts. (B) SMN protein in SMA Type 1 fibroblasts. (C) SMN protein in SMA Type 1 motor neurons. (D) SMN1 and SMN2 splicing in whole blood derived from HV. Fibroblasts from SMA Type 1 patients were cultured for 24 hours (A) or 48 hours (B); motor neurons from SMA Type 1 patient iPSCs (induced Pluripotent Stem Cells) were cultured for 72 hours (C) and whole blood cells from healthy volunteers (HV) for 4 hours (D) in the presence of the compound of Example 20. SMN splicing was assessed by RT-PCR, and SMN protein levels were assessed by homogenous time-resolved fluorescence (HTRF) in fibroblast lysates, and by immunostaining for SMN in motor neurons. Data represent means standard error (SEM) of 3 evaluations per data point and are expressed as fold change vs. untreated controls.
The compound of Example 20 is an orally available small molecule SMN2 splicing modifier for the treatment of SMA. It has been found, that the compound of Example 20 effectively corrects the dysfunctional splicing of the human SMN2 pre-mRNA in cultured patient cells (SMA Type 1 fibroblasts) by shifting the balance of the alternative splicing reaction completely towards the inclusion of SMN2 exon 7 and the production of the full-length mRNA (FIG. 1A: EC50 29±8 nM for FL, 12±1 nM for Δ7 mRNA). […] EC1.5× was 4.7±0.7 nM and the maximum induction was 20-fold.

SMN2 splicing = experiment: Ex vivo whole blood assay, SMN2 splicing; type: cell-based, human; conditions: whole blood cells from healthy volunteers, 4 hours
Experimental: as §1, with “controls. To further assess SMN2 splicing as a potential blood biomarker, an ex vivo assay was developed using whole blood cells from healthy volunteers in which SMN1 and SMN2 splicing was assessed after 4 hours treatment with the compound of Example 20 (at this time point, maximal splicing changes were achieved).” for “controls.”

SMN protein [1] = experiment: SMN protein in brain and quadriceps muscle of C/C-allele mice (HTRF); type: in vivo, mouse
Experimental: (A) SMN protein in brains of C/C-allele mice. (B) SMN protein in brains of SMNΔ7 mice. (C) SMN protein in quadriceps muscle of C/C-allele mice. (D) SMN protein in quadriceps muscle of SMNΔ7 mice. C/C-allele mice and SMNΔ7 mice were treated with the compound of Example 20. One hour after the last dose, brains and quadriceps muscles were collected and levels of SMN protein were assessed by HTRF. Data represent means SEM of 5-6 animals per group and are expressed as fold change vs. vehicle-treated controls. *=p<0.05, **=p<0.01, ***=p<0.001 vs. untreated controls.
In vivo, the compound of Example 20 increases SMN protein in the brain and muscle in the severe SMNΔ7 model and the milder C/C-allele model, carrying human SMN2 transgenes. Adult C/C-allele mice were treated for 10 days with vehicle or the compound of Example 20 (1, 3 or 10 mg/kg PO, daily), and 3 days old (P3) SMNΔ7 mice were treated for 7 days with vehicle or the compound of Example 20 (0.1, 0.3, 1 or 3 mg/kg IP, daily). […] In SMNΔ7 mice, the SMN protein increase was only partial in both brain and muscle, reaching approximately 43% (brain) and 55% (muscle) of protein levels in heterozygous mice.

SMN1 splicing = experiment: Ex vivo whole blood assay, SMN1 splicing; type: cell-based, human; conditions: whole blood cells from healthy volunteers, 4 hours
Experimental: as §1, with “controls. To further assess SMN2 splicing as a potential blood biomarker, an ex vivo assay was developed using whole blood cells from healthy volunteers in which SMN1 and SMN2 splicing was assessed after 4 hours treatment with the compound of Example 20 (at this time point, maximal splicing changes were achieved).” for “controls.”

SMN protein [2] = experiment: SMN protein in spinal motor neurons derived from SMA patient iPSCs (immunostaining); type: cell-based, human
Experimental: as §1

FoxM1 = experiment: Alternative splicing of FoxM1 in SMA Type I patient fibroblasts (RT-qPCR); type: cell-based; conditions: Homo sapiens, Fibroblast, 24 hours
Experimental: FIG. 5. Alternative Splicing of FoxM1 in vitro SMA Type I patient fibroblasts were treated with the compound of Example 20 for 24 hours, and FoxM1 full-length (FL) and exon 9-lacking (Δ9) mRNAs were analyzed by RT-qPCR. Data represent means SEM of 6 repetitions and are expressed as fold change vs. untreated controls.
FoxM1, a gene alternatively spliced by other splicing modifier compounds, encodes a cell cycle regulator. […] 2007 February; 3(1):1-3. Laoukili et al, Biochim Biophys Acta. 2007 January; 1775(1):92-102]. […] Increased expression of the FoxM1A isoform, together with decreased expression of FoxM1 isoforms lacking exon 9, has the capability to disturb and inhibit cell cycle progression if splicing changes are at a level that is biologically significant. Thus, the compound of Example 20 acts in a similar way on the SMN2 and FoxM1 splicing machinery, but with opposing outcomes with regard to protein function and at varying degrees. The EC50 for MADD, a gene also identified as affected by splicing modifiers including the compound of Example 20 at high concentrations and known to be involved in apoptotic processes, is not known.

For Cc1cn2nc(-c3cc(=O)n4cc(N5CCNC6(CC6)C5)ccc4n3)cc(C)c2n1 [Example 20, 7-(4,7-diazaspiro[2.5]octan-7-yl)-2-(2,8-dimethylimidazo[1,2-b]pyridazin-6-yl)pyrido[1,2-a]pyrimidin-4-one], the EC50 (human SMN2 pre-mRNA; read-out: EC50 for FL SMN2 mRNA) was 29 ± 8 nM, the EC50 (human SMN2 pre-mRNA; read-out: EC50 for Δ7 SMN2 mRNA) was 12 ± 1 nM and the “concentration at which effects on splicing were evident” value (SMN2 splicing) was “above 100 nM”. The “effect on SMN2 splicing” value (SMN2 splicing) was “dose-dependently altered towards inclusion of exon 7”, the “SMN levels in muscle compared with heterozygous mice” value (SMN protein [1]; C/C-allele mice, 10 mg/kg dose) was “no different from those in heterozygous mice” and the “maximum increase of SMN protein levels in brain and muscle tissue” value (SMN protein [1]; adult C/C-allele mice, 10 mg/kg PO daily, 10 days) was 2-3 fold. The “effect on SMN1 splicing” value (SMN1 splicing) was “largely unaffected”, the “maximal increase in SMN protein above untreated cells” value (SMN protein [2]; motor neurons from SMA patient iPSCs) was 60-80% and the EC50 (SMN protein [2]; spinal motor neurons from SMA patient iPSCs, 72 hours) was 182 ± 114 nM. It also gave an EC50 (FoxM1; read-out: EC50 for FoxM1 FL mRNA) of 67 ± 32 nM and an EC50 (FoxM1; read-out: EC50 for FoxM1 Δ9 mRNA) of 139 ± 43 nM.
